{
  "source": "patent US20210069213A1",
  "about": "“COMPOSITION AND METHOD OF TREATMENT FOR DRY A.M.D. (AGE RELATED MACULAR DEGENERATION)” (EYE CO PTY LTD, priority 2018, published 2021)",
  "key": {"[1]": {"tested_on": "Sprague-Dawley rats exposed to bright continuous light", "assay": "Light damage (photo-oxidative damage) model of dry AMD, corticosteroid treatment vs vehicle", "type": "in vivo", "conditions": "after photo-oxidative damage; FA compared with TA; listed as FA", "experimental": "All experiments conducted were in accordance with the ARVO Statement for the Use of Animals in Ophthalmic and Vision Research. Albino Sprague-Dawley (SD) rats aged from […] were exposed to bright continuous light (BCL) at 1000 lux. The rats were born and reared in dim cyclic light conditions (12 h light:12 h dark) with an ambient light level of approximately 5 lux. Exposure to BCL was conducted on animals aged between post-natal days (P) 90-150. Prior to BCL exposure, rats were dark adapted for a minimum of 15 h then transferred to individual cages designed to allow light to enter unimpeded. There were no areas of shadow in the cages; pupillary dilation was not performed. BCL exposure commenced consistently at 9:00 am, and was achieved using a cold-white fluorescent light source positioned above the cages (18 W, Cool White; TFC), at an intensity of approximately 1000 lux at the cage floor. BCL exposure was maintained over a period of 24 h, after which time the animals were immediately returned to dim cyclic conditions for the post-exposure period.\nAge-matched, dim-reared animals served as control samples.\nAnimals were euthanatized by overdose of barbiturate administered by an intraperitoneal injection (60 mg/kg bodyweight; Valabarb; Virbac Animal Health, Regents Park, NSW, Australia).\nEyes were oriented and embedded in O.C.T. compound (Tissue-Tek, Sakura, Japan) then snap frozen in liquid nitrogen and cryosectioned at […] Retinas for RNA extraction were immediately deposited in RNA stabilizer (RNAlater; Ambion, Austin, Tex.), prechilled on ice, and stored according to the manufacturer's instructions. RNA was then extracted from each sample. The samples were incubated at 4° C. overnight to allow adequate penetration of the preservative, and then stored at […] until required. The samples were processed in batches encompassing the entire time course, to ensure comparability. […]\nTUNEL labeling was used to quantify photoreceptor apoptosis in cryosections, during and after BCL, with a protocol published previously. […]"}, "[2]": {"tested_on": "subject with bi-lateral GA", "assay": "Phase Ib study of intravitreal FA in patients with geographic atrophy", "type": "in vivo, human", "conditions": "single subject, 1 mg intravitreal", "experimental": "A. Phase Ib, Study of Safety and Tolerability of Intravitreal Fludrocortisone Acetate (FA) and Triamcinolone (TA) in Patients with Geographic Atrophy (GA)\nThe identical protocol will be followed with TA.\nPart 1 involves a single participant to assess safety and tolerability of 1 mg/0.1 mL FA. This participant will be followed for up to 28 days and reviewed by a safety review committee prior to the recruitment of a further 2 participants treated with 1 mg/0.1 mL FA totalling in 3 participants in the first cohort.\nVisit 2 (Baseline)—All subjects: Unless specified, all ophthalmic procedures (including imaging) are to be performed on the Study eye only. 1. Verify that all inclusion/exclusion criteria are met, including the determination of eligibility by the PI. 2. Obtain information on any changes in medical health and/or the use of concomitant medications. 3. Collect vital signs pre- and post-dose. Vital signs will be measured within 1 hour prior to dosing for the pre-dose time point. Post-dose vital signs readings will be performed within 30 minutes after dosing. 4. Perform BCVA. 5. Perform LL-BCVA. 6. Perform a complete ophthalmic exam including slit-lamp exam of the cornea, iris, anterior chamber, lens (LOCS III if any opacity on the lens noted) and aqueous reaction (cells and flare), dilated fundus exam of the vitreous and retina and IOP measurement. 7. Perform the IVT injection of fludrocortisone acetate. 8. Monitor the study eye within 15 minutes' post injection. 9. Monitor for adverse events.\nFIGS. 2 to 6 show the results of injection of fludrocortisone into one subject according to the Phase lb study."}, "[3]": {"tested_on": "monkey choroidal endothelial cells (CECs)", "conditions": "PMA-stimulated CECs; FA compared with TA; cited from earlier work"}, "[4]": {"tested_on": "New Zealand albino rabbits", "conditions": "cited from earlier work; for ERG change in the other groups: intravitreal 2 mg, 1 mg, 400 μg/0.1 ml; for ERG change in the other groups / ERG change: two weeks after injection; for intravitreal (vitreous) haemorrhage: intravitreal 4 mg/0.1 mL; for ERG change: intravitreal 4 mg/0.1 ml"}},
  "note": "Entries after “also recorded” stand apart in the source; their conditions may differ. Like-named read-outs stand apart in the source and are kept apart here.",
  "data": [
    {"smiles": "CC(=O)OCC(=O)[C@@]1(O)CC[C@H]2[C@@H]3CCC4=CC(=O)CC[C@]4(C)[C@@]3(F)[C@@H](O)C[C@@]21C", "note": "[Fludrocortisone acetate, 9-α-Fiuoro-11 β. 17 α, 21-trihydroxy-4-pregnene-3, 20 dione acetate]", "values": [
      {"measurement": "prevention of macrophage recruitment (IBA1)", "setting": "[1]", "value": "more effective than TA; also recorded: superior"},
      {"measurement": "prevention of photoreceptor death / cell death (TUNEL)", "setting": "[1]", "value": "more effective than TA; also recorded: superior"},
      {"measurement": "retinal function (ERG, a- and b-wave amplitude)", "setting": "[1]", "value": "preserves retinal function; also recorded: superior"},
      {"measurement": "external eye exam", "setting": "[2]", "value": "all normal"},
      {"measurement": "slit lamp biomicroscopy", "setting": "[2]", "value": "all normal, apart from a previous scar on the anterior chamber"},
      {"measurement": "vitreous haze grading", "setting": "[2]", "value": "absent"},
      {"measurement": "toxicity", "setting": "[2]; left eye, day 28", "value": "no evidence of toxicity"},
      {"measurement": "visual acuity (VA)", "setting": "[2]; left eye, day 28", "value": "improved visual acuity"},
      {"measurement": "restoring quiescent morphology", "setting": "[3]", "value": "superior to TA"},
      {"measurement": "histological examination of retinal sections (light microscopy)", "setting": "[4]; 400 μg to 4 mg per eye", "value": "no evidence of toxicity or vacuolization except for one eye in the 4mg group"},
      {"measurement": "time by which all aggregates disappeared from the vitreous", "setting": "[4]; 2-mg group", "value": "22 ± 8", "unit": "days"},
      {"measurement": "time by which all aggregates disappeared from the vitreous", "setting": "[4]; 4-mg group", "value": "33 ± 7", "unit": "days"},
      {"measurement": "IOP", "setting": "[4]; all groups", "value": "normal"},
      {"measurement": "ERG change in the other groups", "setting": "[4]", "value": "normal ERG"},
      {"measurement": "ERG change in the other groups", "setting": "[4]; listed as FA", "value": "no other problems of reductions in ERG"},
      {"measurement": "intravitreal (vitreous) haemorrhage", "setting": "[4]", "value": 1},
      {"measurement": "intravitreal (vitreous) haemorrhage", "setting": "[4]; listed as FA", "value": "Two eyes at 4 mg/0.1 ml experienced intravitreal haemorrhage"},
      {"measurement": "ERG change", "setting": "[4]", "value": "one eye injected with 4 mg/0.1 ml exhibited decreases in ERG output"},
      {"measurement": "ERG change", "setting": "[4]; listed as FA", "value": "reduced ERG"},
      {"measurement": "signs of retinal toxicity on slit-lamp examination, indirect ophthalmoscopy, or light microscopy", "setting": "[4]; rabbit, in vivo", "value": "no signs of retinal toxicity"},
      {"measurement": "tolerability in animal toxicology studies", "setting": "[4]; rabbit, in vivo", "value": "well-tolerated"},
      {"measurement": "inflammation in anterior or posterior segment (slit lamp biomicroscopy, indirect ophthalmoscopy)", "setting": "[4]; up to 40 days of observations, all treatment groups", "value": "did not show any evidence of significant inflammation"}
    ]}
  ]
}
